In ChEMBL document CHEMBL1139680, “2,4-Disubstituted piperidines as selective CC chemokine receptor 3 (CCR3) antagonists: synthesis and selectivity” (Bioorg Med Chem Lett, 2006):

What was measured:
[1] = biological target: T1, C-C chemokine receptor type 3 (Homo sapiens, UniProt P51677); assay: Binding affinity to CCR3
T1 sequence (P51677 whole entry): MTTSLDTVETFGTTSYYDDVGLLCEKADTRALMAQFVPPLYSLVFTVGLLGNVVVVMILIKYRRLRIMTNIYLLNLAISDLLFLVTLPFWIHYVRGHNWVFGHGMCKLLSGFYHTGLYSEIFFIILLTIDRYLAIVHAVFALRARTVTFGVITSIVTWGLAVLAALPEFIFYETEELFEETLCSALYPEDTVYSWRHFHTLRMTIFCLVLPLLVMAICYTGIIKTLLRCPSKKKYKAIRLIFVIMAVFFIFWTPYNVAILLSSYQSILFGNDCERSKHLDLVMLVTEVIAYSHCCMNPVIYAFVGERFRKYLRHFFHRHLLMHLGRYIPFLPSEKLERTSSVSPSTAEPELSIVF

[2] = biological target: Sodium-dependent noradrenaline transporter (Homo sapiens, UniProt P23975); assay: Inhibition of NET
Chain of Sodium-dependent noradrenaline transporter (P23975 whole entry): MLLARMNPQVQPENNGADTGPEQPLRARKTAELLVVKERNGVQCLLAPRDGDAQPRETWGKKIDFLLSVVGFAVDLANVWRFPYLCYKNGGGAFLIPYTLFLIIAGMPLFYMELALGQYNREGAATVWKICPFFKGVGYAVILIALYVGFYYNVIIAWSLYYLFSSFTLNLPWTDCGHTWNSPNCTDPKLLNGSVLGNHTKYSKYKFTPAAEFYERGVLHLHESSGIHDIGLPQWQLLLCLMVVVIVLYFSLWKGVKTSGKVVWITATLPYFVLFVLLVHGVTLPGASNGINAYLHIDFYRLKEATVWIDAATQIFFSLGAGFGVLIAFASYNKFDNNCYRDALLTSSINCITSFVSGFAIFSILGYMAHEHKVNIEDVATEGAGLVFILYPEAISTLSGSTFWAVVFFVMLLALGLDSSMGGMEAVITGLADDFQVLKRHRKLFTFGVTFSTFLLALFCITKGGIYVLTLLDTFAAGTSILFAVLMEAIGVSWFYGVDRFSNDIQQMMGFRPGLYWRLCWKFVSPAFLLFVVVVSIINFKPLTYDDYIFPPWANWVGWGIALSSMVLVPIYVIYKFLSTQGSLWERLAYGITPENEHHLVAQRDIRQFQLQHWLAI

[3] = biological target: Sodium-dependent serotonin transporter (Homo sapiens, UniProt P31645); assay: Inhibition of 5HTT
Chain of Sodium-dependent serotonin transporter (P31645 whole entry): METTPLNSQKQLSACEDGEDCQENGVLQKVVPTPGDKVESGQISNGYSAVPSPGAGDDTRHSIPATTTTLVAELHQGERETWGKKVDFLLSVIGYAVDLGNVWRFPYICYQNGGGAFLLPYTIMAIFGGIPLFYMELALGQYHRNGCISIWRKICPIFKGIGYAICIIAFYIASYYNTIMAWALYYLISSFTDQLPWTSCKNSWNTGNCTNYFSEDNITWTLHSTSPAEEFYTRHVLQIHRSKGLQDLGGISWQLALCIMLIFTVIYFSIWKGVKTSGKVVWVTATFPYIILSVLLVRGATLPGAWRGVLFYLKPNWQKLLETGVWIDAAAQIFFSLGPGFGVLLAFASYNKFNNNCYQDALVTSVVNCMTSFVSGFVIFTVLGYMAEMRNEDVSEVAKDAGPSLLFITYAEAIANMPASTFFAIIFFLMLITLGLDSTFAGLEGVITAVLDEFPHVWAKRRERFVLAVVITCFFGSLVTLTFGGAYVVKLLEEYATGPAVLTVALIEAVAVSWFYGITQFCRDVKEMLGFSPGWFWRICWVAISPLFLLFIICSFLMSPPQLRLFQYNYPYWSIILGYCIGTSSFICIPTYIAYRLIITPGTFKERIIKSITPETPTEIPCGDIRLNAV

[4] = biological target: Sodium-dependent dopamine transporter (Homo sapiens, UniProt Q01959); assay: Inhibition of DAT
Chain of Sodium-dependent dopamine transporter (Q01959 whole entry): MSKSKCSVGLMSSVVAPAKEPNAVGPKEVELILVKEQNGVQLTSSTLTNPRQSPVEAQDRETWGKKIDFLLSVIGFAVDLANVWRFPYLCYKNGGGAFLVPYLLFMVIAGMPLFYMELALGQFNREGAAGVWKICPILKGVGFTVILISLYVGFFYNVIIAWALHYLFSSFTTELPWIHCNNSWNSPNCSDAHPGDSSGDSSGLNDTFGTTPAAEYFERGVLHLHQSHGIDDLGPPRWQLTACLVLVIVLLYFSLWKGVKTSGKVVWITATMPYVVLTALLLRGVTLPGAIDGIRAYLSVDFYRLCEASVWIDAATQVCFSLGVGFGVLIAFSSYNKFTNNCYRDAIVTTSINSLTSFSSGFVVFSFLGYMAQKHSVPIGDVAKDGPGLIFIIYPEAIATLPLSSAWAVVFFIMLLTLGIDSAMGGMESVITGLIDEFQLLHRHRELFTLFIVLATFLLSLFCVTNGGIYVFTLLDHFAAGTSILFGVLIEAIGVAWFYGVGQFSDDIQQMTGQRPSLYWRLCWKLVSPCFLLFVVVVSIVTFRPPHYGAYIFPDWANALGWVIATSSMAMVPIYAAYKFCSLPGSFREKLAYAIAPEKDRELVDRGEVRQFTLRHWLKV

[5] = Cmax in cynomolgus monkeys after 5 mg/kg oral dose; assay type: ADME, organism-based, Macaca fascicularis; design: dose 5 mg/kg, route oral; conditions: cynomolgus monkey, in vivo
[6] = Volume of distribution in cynomolgus monkey at 2 mg/kg, iv; assay type: ADME, organism-based, Macaca fascicularis; design: dose 2 mg/kg, route intravenous; conditions: in vivo, read-out: Vdss
[7] = Cmax in mice after 10 mg/kg oral dose; assay type: ADME, organism-based; design: dose 10 mg/kg, route oral; conditions: mouse, in vivo
[8] = system: Eosinophil; assay: Inhibition of eotaxin-induced human eosinophil chemotaxis; assay type: functional, cell-based
[9] = Volume of distribution in mouse ar 2 mg/kg, iv; assay type: ADME, organism-based; design: dose 2 mg/kg, route intravenous; conditions: in vivo, read-out: Vdss
[10] = Clearance in cynomolgus monkey at 2 mg/kg, iv; assay type: ADME, organism-based, Macaca fascicularis; design: dose 2 mg/kg, route intravenous; conditions: in vivo
[11] = system: Eosinophil; assay: Inhibition of eotaxin-induced calcium mobilization in eosinophil; assay type: functional, cell-based; conditions: Homo sapiens
[12] = Oral bioavailability in mouse at 10 mg/kg, po; assay type: ADME, organism-based; conditions: in vivo
[13] = Clearance in mouse at 2 mg/kg, iv; assay type: ADME, organism-based; design: dose 2 mg/kg, route intravenous; conditions: in vivo
[14] = Oral bioavailability in cynomolgus monkey at 5 mg/kg, po; assay type: ADME, organism-based, Macaca fascicularis; conditions: in vivo
[15] = Half life in mouse at 10 mg/kg, po; assay type: ADME, organism-based; design: dose 10 mg/kg, route oral; conditions: in vivo
[16] = Half life in cynomolgus monkey at 5 mg/kg, po; assay type: ADME, organism-based, Macaca fascicularis; design: dose 5 mg/kg, route oral; conditions: in vivo

| Compound | IC50 [1] | Ki [2] [nM] | Ki [3] [nM] | Ki [4] [nM] | further results |
| --- | --- | --- | --- | --- | --- |
| CC(=O)c1cc(NC(=O)NCCC[C@H]2C[C@H](Cc3ccc(F)cc3)CCN2CC(F)(F)F)cc(C(C)=O)c1 | 1380 nM (antagonist) |  |  |  |  |
| CC(=O)c1cc(NC(=O)NCCC[C@H]2C[C@H](Cc3ccc(F)cc3)CCN2)cc(C(C)=O)c1 | 0.5 nM (antagonist) | 95 | 3.5 | 119 |  |
| CC(=O)c1cccc(NC(=O)NCCC[C@H]2C[C@H](Cc3ccc(F)cc3)CCN2C)c1 | 1.7 nM (antagonist) | 257 | 572 | 96 |  |
| C=CCN1CC[C@@H](Cc2ccc(F)cc2)C[C@@H]1CCCNC(=O)Nc1cc(C(C)=O)cc(C(C)=O)c1 | 1 nM (antagonist) | 876 | 69 | 297 |  |
| CC(=O)c1cc(NC(=O)NCCC[C@H]2C[C@H](Cc3ccc(F)cc3)CCN2CCO)cc(C(C)=O)c1 | 0.9 nM (antagonist) | 1390 | 40 | 451 |  |
| CC(=O)c1cccc(NC(=O)NCCC[C@H]2C[C@H](Cc3ccc(F)cc3)CCN2)c1 | 1.4 nM (antagonist) | 233 | 18 | 219 |  |
| CC(=O)c1cc(NC(=O)NCCC[C@H]2C[C@H](Cc3ccc(F)cc3)CCN2CCF)cc(C(C)=O)c1 | 2.3 nM (antagonist) | 317 | 49 | 651 |  |
| C#CCN1CC[C@@H](Cc2ccc(F)cc2)C[C@@H]1CCCNC(=O)Nc1cc(C(C)=O)cc(C(C)=O)c1 | 1.9 nM (antagonist) | 524 | 305 | 621 |  |
| CC(=O)c1cc(NC(=O)NCCC[C@H]2C[C@H](Cc3ccc(F)cc3)CCN2C(=N)N)cc(C(C)=O)c1 | 4.3 nM (antagonist) | 388 | 19 | 31 |  |
| CC(=O)c1cccc(NC(=O)NCCC[C@H]2C[C@H](Cc3ccc(F)cc3)CCN2CCO)c1 | 7 nM (antagonist) | 1820 | 50 | 2240 |  |
| CC(=O)c1cccc(NC(=O)NCCC[C@H]2C[C@H](Cc3ccc(F)cc3)CCN2CC2CC2)c1 | 2.5 nM (antagonist) | 3450 | 117 | 251 |  |
| CCCN1CC[C@@H](Cc2ccc(F)cc2)C[C@@H]1CCCNC(=O)Nc1cccc(C(C)=O)c1 | 2 nM (antagonist) | 4170 | 296 | 756 | Cmax [5]: 989 nM; Vd [6]: 3.1 L/kg; Cmax [7]: 274 nM; EC50 [8]: 19 nM; Vd [9]: 8 L/kg; clearance [10]: 6.67 mL/min/kg; IC50 [11]: 26 nM; bioavailability [12]: 36%; clearance [13]: 177 mL/min/kg; bioavailability [14]: 18%; half-life [15]: 1.4 h; half-life [16]: 9 h |
| C=CCN1CC[C@@H](Cc2ccc(F)cc2)C[C@@H]1CCCNC(=O)Nc1cccc(C(C)=O)c1 | 4.1 nM (antagonist) | 1230 | 217 | 855 |  |
| CC(=O)CN1CC[C@@H](Cc2ccc(F)cc2)C[C@@H]1CCCNC(=O)Nc1cc(C(C)=O)cc(C(C)=O)c1 | 0.9 nM (antagonist) | 381 | 11 | 754 |  |
| CC(=O)c1cc(NC(=O)NCCC[C@H]2C[C@H](Cc3ccc(F)cc3)CCN2C(C)=O)cc(C(C)=O)c1 | 3.9 nM (antagonist) | 1380 | 5460 | 1220 | EC50 [8]: > 100 nM; IC50 [11]: 133 nM |
| CC(=O)c1cc(NC(=O)NCCC[C@H]2C[C@H](Cc3ccc(F)cc3)CCN2CCCO)cc(C(C)=O)c1 | 1.3 nM (antagonist) | 497 | 212 | 609 |  |
| CCC(=O)N1CC[C@@H](Cc2ccc(F)cc2)C[C@@H]1CCCNC(=O)Nc1cc(C(C)=O)cc(C(C)=O)c1 | 5.8 nM (antagonist) | 9260 | 224 | 2080 |  |
| CC(=O)c1cc(NC(=O)NCCC[C@H]2C[C@H](Cc3ccc(F)cc3)CCN2CC(N)=O)cc(C(C)=O)c1 | 3.6 nM (antagonist) | 5010 | 710 | 2660 |  |
| CCCN1CC[C@@H](Cc2ccc(F)cc2)C[C@@H]1CCCNC(=O)Nc1cc(C(C)=O)cc(C(C)=O)c1 | 0.7 nM (antagonist) | 1480 | 166 | 157 | EC50 [8]: 4.7 nM; IC50 [11]: 1.2 nM |
| CC(=O)c1cc(NC(=O)NCCC[C@H]2C[C@H](Cc3ccc(F)cc3)CCN2CC(F)F)cc(C(C)=O)c1 | 12.4 nM (antagonist) | 1050 | 328 | 931 |  |
| CC(=O)c1cccc(NC(=O)NCCC[C@H]2C[C@H](Cc3ccccc3)CCN2)c1 (racemic) | 6 nM (antagonist) | 39 | 42 | 32 |  |
| N#Cc1cccc(NC(=O)NCCC[C@H]2C[C@H](Cc3ccccc3)CCN2)c1 (racemic) | 22 nM (antagonist) |  |  |  |  |
| N#Cc1cccc(NC(=O)NCCCC[C@H]2C[C@H](Cc3ccccc3)CCN2)c1 (racemic) | 142 nM (antagonist) |  |  |  |  |
| N#Cc1cccc(NC(=O)NCCC[C@@H]2C[C@H](Cc3ccccc3)CCN2)c1 (racemic) | 386 nM (antagonist) |  |  |  |  |
| N#Cc1cccc(NC(=O)NCC[C@H]2C[C@H](Cc3ccccc3)CCN2)c1 (racemic) | 185 nM (antagonist) |  |  |  |  |
| N#Cc1cccc(NC(=O)NCCC[C@H]2C[C@H](Cc3ccccc3)CCN2)c1 (stereo in doubt; 4) | 13 nM (antagonist) | 37 | 35 | 34 |  |
| N#Cc1cccc(NC(=O)NCCC[C@H]2C[C@H](Cc3ccccc3)CCN2)c1 (stereo in doubt; 5) | 644 nM (antagonist) | 46 | 54 | 10 |  |
